In publication PMC10098062 (Molecular Plant Pathology, 2023):

Molecular target: SstF F299A (SFN-sensing transcription factor, LysR family) (Xanthomonas campestris, UniProt Q8PAP2, F299A)
Assay: biochemical

Molecule `C[S+]([O-])CCCCN=C=S` (stereo not shown) [SFN, Sulforaphane] has a Kd of 143 µM.
